Measured values from PubChem BioAssay AID2060620 (Molecular Pharmacology Branch, DTP, NCI, 2025).

Test system: 328373-195-R-J1-PDC complex spheroids, viability % test/control
Experiment: Anticancer human tumor 328373-195-R-J1-PDC patient-derived head and neck squamous carcinoma cell line growth inhibition [CLK]
Conditions: for IC50: curve of first compound; for viability, T/C: stronger effect = lower value; active means viability on the fitted dose curve at most 10% of control; inactive means the rest
Procedure, shortened: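 Multi-cell-type spheroids combined patient-derived tumor cells with HUVEC endothelial cells and human mesenchymal stem cells. Paired agents were dosed in half-log steps down from about clinical Cmax, or from 10 microM where Cmax was unknown.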

[1] = second compound 0.0316 µM, first compound 0.0316 µM
[2] = second compound 0.0316 µM, first compound 0.1 µM
[3] = second compound 0.0316 µM, first compound 0.316 µM
[4] = second compound 0.0316 µM, first compound 1 µM
[5] = second compound 0.1 µM, first compound 0.0316 µM
[6] = second compound 0.1 µM, first compound 0.1 µM
[7] = second compound 0.1 µM, first compound 0.316 µM
[8] = second compound 0.1 µM, first compound 1 µM
[9] = second compound 0.316 µM, first compound 0.0316 µM
[10] = second compound 0.316 µM, first compound 0.1 µM
[11] = second compound 0.316 µM, first compound 0.316 µM
[12] = second compound 0.316 µM, first compound 1 µM
[13] = second compound 1 µM, first compound 0.0316 µM
[14] = second compound 1 µM, first compound 0.1 µM
[15] = second compound 1 µM, first compound 0.316 µM
[16] = second compound 1 µM, first compound 1 µM
[17] = second compound 3.16 µM, first compound 0.0316 µM
[18] = second compound 3.16 µM, first compound 0.1 µM
[19] = second compound 3.16 µM, first compound 0.316 µM
[20] = second compound 3.16 µM, first compound 1 µM
[21] = second compound 10 µM, first compound 0.0316 µM
[22] = second compound 10 µM, first compound 0.1 µM
[23] = second compound 10 µM, first compound 0.316 µM
[24] = second compound 10 µM, first compound 1 µM
[25] = second compound 0.0316 µM, first compound 0.00316 µM
[26] = second compound 0.0316 µM, first compound 0.01 µM
[27] = second compound 0.1 µM, first compound 0.00316 µM
[28] = second compound 0.1 µM, first compound 0.01 µM
[29] = second compound 0.316 µM, first compound 0.00316 µM
[30] = second compound 0.316 µM, first compound 0.01 µM
[31] = second compound 1 µM, first compound 0.00316 µM
[32] = second compound 1 µM, first compound 0.01 µM
[33] = second compound 3.16 µM, first compound 0.00316 µM
[34] = second compound 3.16 µM, first compound 0.01 µM
[35] = second compound 10 µM, first compound 0.00316 µM
[36] = second compound 10 µM, first compound 0.01 µM
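Further: spheroids exposed to the agents for 7 days.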

CC(Nc1ccc2c(c1)OCCn1cc(N3C(=O)OCC3C(F)F)nc1-2)C(N)=O (stereo unspecified) + CNC(=O)c1ccc(Nc2nc(OC3CCCC3)c3c(-c4ccc5nc(C)oc5c4)c[nH]c3n2)c(OC)c1
< 31.6 nM: IC50 (second compound 0.1 µM) | IC50 (second compound 0.316 µM) | IC50 (second compound 1 µM) | IC50 (second compound 3.16 µM) | IC50 (second compound 10 µM)
inactive: viability, T/C [1] 64.5% | viability, T/C [2] 63% | viability, T/C [3] 56.1% | viability, T/C [4] 61.7% | viability, T/C (second compound 0.0316 µM, first compound 3.16 µM) 57% | viability, T/C (second compound 0.0316 µM, first compound 10 µM) 41.6% | viability, T/C [5] 12.4% | viability, T/C [6] 12.9% | viability, T/C [7] 11.3% | viability, T/C [8] 13.8% | viability, T/C (second compound 0.1 µM, first compound 3.16 µM) 10.4% | viability, T/C (second compound 0.1 µM, first compound 10 µM) 10.2% | viability, T/C [9] 10.3% | viability, T/C [10] 11% | viability, T/C [11] 12.6% | viability, T/C [12] 9.39% | viability, T/C (second compound 0.316 µM, first compound 3.16 µM) 9.16% | viability, T/C (second compound 0.316 µM, first compound 10 µM) 11.8% | viability, T/C [13] 12% | viability, T/C [14] 10.1% | viability, T/C [15] 9.86% | viability, T/C [16] 10.9% | viability, T/C (second compound 1 µM, first compound 3.16 µM) 10.3% | viability, T/C (second compound 1 µM, first compound 10 µM) 10.2% | viability, T/C [17] 11.7% | viability, T/C [18] 11% | viability, T/C [19] 11.4% | viability, T/C [20] 8.89% | viability, T/C (second compound 3.16 µM, first compound 3.16 µM) 13.5% | viability, T/C (second compound 3.16 µM, first compound 10 µM) 8.5% | viability, T/C [21] 11.8% | viability, T/C [22] 11.6% | viability, T/C [23] 10.7% | viability, T/C [24] 11.9% | viability, T/C (second compound 10 µM, first compound 3.16 µM) 13.7% | viability, T/C (second compound 10 µM, first compound 10 µM) 11%
5300 nM: IC50 (second compound 0.0316 µM)

CCN1CCN(Cc2ccc(Nc3ncc(F)c(-c4cc(F)c5nc(C)n(C(C)C)c5c4)n3)nc2)CC1 + CNC(=O)c1ccc(Nc2nc(OC3CCCC3)c3c(-c4ccc5nc(C)oc5c4)c[nH]c3n2)c(OC)c1
inactive: viability, T/C [25] 53.3% | viability, T/C [26] 60.8% | viability, T/C [1] 46.3% | viability, T/C [2] 48.5% | viability, T/C [3] 44.6% | viability, T/C [4] 36.1% | viability, T/C [27] 12.7% | viability, T/C [28] 11.1% | viability, T/C [5] 13.1% | viability, T/C [6] 13.4% | viability, T/C [7] 15.7% | viability, T/C [8] 19.4% | viability, T/C [29] 11.2% | viability, T/C [30] 11.9% | viability, T/C [9] 11.8% | viability, T/C [10] 12.6% | viability, T/C [11] 17.2% | viability, T/C [12] 14.6% | viability, T/C [31] 9.58% | viability, T/C [32] 12% | viability, T/C [13] 12.7% | viability, T/C [14] 12.3% | viability, T/C [15] 14.1% | viability, T/C [16] 15.2% | viability, T/C [33] 12% | viability, T/C [34] 10.5% | viability, T/C [17] 12.8% | viability, T/C [18] 15% | viability, T/C [19] 15.9% | viability, T/C [20] 16.7% | viability, T/C [35] 14.5% | viability, T/C [36] 11.4% | viability, T/C [21] 15.1% | viability, T/C [22] 15.1% | viability, T/C [23] 17.6% | viability, T/C [24] 13.1%
54.9 nM: IC50 (second compound 0.0316 µM)
< 3.16 nM: IC50 (second compound 0.1 µM) | IC50 (second compound 0.316 µM) | IC50 (second compound 1 µM) | IC50 (second compound 3.16 µM) | IC50 (second compound 10 µM)

COc1c(OCCCN2CCOCC2)ccc2c3n(c(=NC(=O)c4cnc(N)nc4)nc12)CCN3 + CNC(=O)c1ccc(Nc2nc(OC3CCCC3)c3c(-c4ccc5nc(C)oc5c4)c[nH]c3n2)c(OC)c1
141 nM: IC50 (second compound 0.0316 µM)
active: viability, T/C [4] 8.91% | viability, T/C [6] 12.3% | viability, T/C [7] 7.7% | viability, T/C [8] 6.41% | viability, T/C [9] 10% | viability, T/C [10] 9.38% | viability, T/C [11] 6.22% | viability, T/C [12] 5.91% | viability, T/C [13] 10.5% | viability, T/C [14] 9.83% | viability, T/C [15] 7.75% | viability, T/C [16] 4.65% | viability, T/C [33] 9.58% | viability, T/C [34] 11.5% | viability, T/C [17] 10.6% | viability, T/C [18] 9.71% | viability, T/C [19] 8.29% | viability, T/C [20] 7.29% | viability, T/C [22] 11.9% | viability, T/C [23] 8.72% | viability, T/C [24] 5.52%
< 3.16 nM: IC50 (second compound 0.1 µM) | IC50 (second compound 0.316 µM) | IC50 (second compound 1 µM) | IC50 (second compound 3.16 µM) | IC50 (second compound 10 µM)
inactive: viability, T/C [25] 68.3% | viability, T/C [26] 67.3% | viability, T/C [1] 68.2% | viability, T/C [2] 60.7% | viability, T/C [3] 24.9% | viability, T/C [27] 10.9% | viability, T/C [28] 12.2% | viability, T/C [5] 11.8% | viability, T/C [29] 10.6% | viability, T/C [30] 11.2% | viability, T/C [31] 9.61% | viability, T/C [32] 10.8% | viability, T/C [35] 12.8% | viability, T/C [36] 11% | viability, T/C [21] 13.6%
